Experimental data as given in patent publication US9426991B2, “Synergistic weed control from applications of aminocyclopyrachlor and picloram” (Dow AgroSciences LLC, priority 2012, dated 2016).

System: broomweed (Sida acuta, SIDAC)
Test: Field trial, post-emergence foliar application, weed control rating 0-100%
Assay type: in vivo
Settings: for Aminocyclopyrachlor Mean % weed control: 150 g ae/ha alone; for Picloram-Potassium Mean % weed control: 180 g ae/ha alone
Description: The (a) aminocyclopyrachloror an agriculturally acceptable salt or ester thereof is mixed with or applied in combination with (b) picloram or an agriculturally acceptable salt or ester thereof in an amount sufficient to induce a synergistic herbicidal effect. […] As described in the Herbicide Handbook of the Weed Science Society of America, Ninth Edition, 2007, p. 429, “‘synergism’ [is] an interaction of two or more factors such that the effect when combined is greater than the predicted effect based on the response to each factor applied separately.” Synergistic in the herbicide context can mean that the use of (a) and (b) as defined above results in an increased weed control effect compared to the weed control effects that are possible with the use of (a) or (b) alone. In some embodiments, the damage or injury to the undesired vegetation caused by the compositions and methods disclosed herein is evaluated using a scale from 0% to 100%, when compared with the untreated control vegetation, wherein 0% indicates no damage to the undesired vegetation and 100% indicates complete destruction of the undesired vegetation. […] 22 (1967)
Field trials were conducted with applications made to established grassland with naturally occurring weed populations. The target plants were treated with postemergence foliar applications when they were at the beginning of the flowering stage and 30 centimeters (11.8 inches) tall. All treatments were applied using a randomized complete block trial design, with four replications per treatment.
Treatments consisted of aminocyclopyrachlor in acid form and picloram-potassium, each in water and applied alone or in combination. Spray solutions were prepared using an appropriate amount of dilution to form a 2.0-liter (L) aqueous spray solution with active ingredients in single and two-way combinations. Formulated compounds were applied to the plant material with a backpack sprayer equipped with 8003 nozzles calibrated to deliver 400 liters per hectare (L/ha) at a spray height of 18-20 in (45-51 cm) above average plant canopy.
The treated plant was broomweed (Sida acuta, SIDAC). The treated plots and control plots were rated blind at various intervals after application. Ratings were based on a scale of 0-100%, as discussed above, wherein 0% indicates no damage to the undesired vegetation and 100% indicates complete destruction of the undesired vegetation
Colby's equation was used to determine the herbicidal effects expected from the mixtures, as described above. The results were measured at 59 days, 75 days, and 88 days after the first application of the compositions. […] The herbicide tank mix combinations tested, application rates and ratios employed, plant species tested, and results are given below.

Nc1nc(C2CC2)nc(C(=O)O)c1Cl [Aminocyclopyrachlor, 6-amino-5-chloro-2-cyclopropylpyrimidine-4-carboxylic acid]
Aminocyclopyrachlor Mean % weed control (59 days after application): 42.5%
Aminocyclopyrachlor Mean % weed control (75 days after application): 36.3%
Aminocyclopyrachlor Mean % weed control (88 days after application): 41.3%

Nc1c(Cl)c(Cl)nc(C(=O)O)c1Cl [Picloram-Potassium, 4-amino-3,5,6-trichloro-2-pyridinecarboxylic acid]
Picloram-Potassium Mean % weed control (59 days after application): 6.3%
Picloram-Potassium Mean % weed control (75 days after application): 3.8%
Picloram-Potassium Mean % weed control (88 days after application): 5.5%
